Source: patent publication US12583866B2, “Pyrido[2,3-b][1,4]oxazines or tetrahydropyrido[2,3-b][1,4]oxazepines as IAP antagonists” (BEIGENE, LTD., priority 2020, dated 2026)

Legend:
[1] = target: T1, recombinant human cIAP1-BIR3 protein (Homo sapiens, UniProt Q13490); test: Recombinant human c-IAP1-BIR3 biochemical assay (HTRF, peptide displacement); settings: 1.2 nM cIAP1-BIR3, 3 nM AbuRPF-K(5-Fam)-NH2 peptide, read-out: Protein binding IC50 (nM) c-IAP1
T1 construct: recombinant human cIAP1-BIR3 protein; purchased Reaction biology APT-11-370
T1 sequence (Q13490 253-363 limits assumed): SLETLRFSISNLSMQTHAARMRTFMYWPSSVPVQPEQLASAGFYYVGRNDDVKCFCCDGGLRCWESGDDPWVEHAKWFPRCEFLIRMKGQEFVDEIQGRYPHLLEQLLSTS
Method in brief: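 HTRF peptide displacement: after 1 h compound pre-incubation (max 10 uM, 4-fold dilutions, 10 points) with 1.2 nM protein in HEPES pH 7.5 buffer, 3 nM 5-Fam-labelled AbuRPF-K peptide and Tb-anti-6His were each added for 1 h at room temperature. Inhibition taken from 520/490 nm ratio, fitted four-parameter logistic for IC50.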

[2] = target: T2, recombinant human cIAP2-BIR3 protein (Homo sapiens, UniProt Q13489); test: Recombinant human c-IAP2-BIR3 biochemical assay (HTRF, peptide displacement); settings: 3.7 nM cIAP2-BIR3, 3.7 nM AbuRPF-K(5-Fam)-NH2 peptide, read-out: Protein binding IC50 (nM) c-IAP2
T2 construct: recombinant human cIAP2-BIR3 protein; purchased Reaction biology APT-11-372
T2 sequence (Q13489 238-349 limits assumed): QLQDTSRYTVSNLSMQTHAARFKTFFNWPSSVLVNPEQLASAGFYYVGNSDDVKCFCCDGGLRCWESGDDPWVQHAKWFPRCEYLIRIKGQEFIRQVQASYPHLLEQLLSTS
Method in brief: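 HTRF peptide-displacement readout (ex337, em520/490 ratio) after sequential 1 h room-temperature steps: compound with 3.7 nM protein, then 3.7 nM 5-Fam-labelled AbuRPF peptide, then Tb-cryptate anti-6His antibody. Buffer pH 7.5 HEPES with NaCl, Tween-20, DTT; 10-point 4-fold dilutions from 10 uM; four-parameter logistic IC50.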

[3] = target: T3, recombinant human XIAP-BIR3 protein (Homo sapiens, UniProt P98170); test: Recombinant human XIAP-BIR3 biochemical assay (HTRF, peptide displacement); settings: 3.7 nM XIAP-BIR3, 7.6 nM AbuRPF-K(5-Fam)-NH2 peptide, read-out: Protein binding IC50 (nM) XIAP
T3 construct: recombinant human XIAP-BIR3 protein; purchased Reaction biology APT-11-374
T3 sequence (P98170 241-356 limits assumed): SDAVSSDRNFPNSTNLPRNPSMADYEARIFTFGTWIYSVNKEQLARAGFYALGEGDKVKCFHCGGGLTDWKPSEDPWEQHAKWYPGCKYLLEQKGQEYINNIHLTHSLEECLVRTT
Method in brief: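 HTRF peptide displacement with 7.6 nM 5-Fam-labelled AbuRPF peptide, anti-6His Tb donor and 3.7 nM recombinant XIAP-BIR3. Protein and compound (10-point, 4-fold from 10 µM) were preincubated 1 h RT in HEPES pH 7.5 buffer before each addition, each 1 h. IC50 by four-parameter fit of the 520/490 nm ratio.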

SMILES: C[C@@H]1CN(CC(=O)N2c3cc(Cc4ccc(F)cc4)c(CO)nc3OC[C@@H]2C)[C@@H](CN2C[C@@H]3C[C@H]2CO3)CN1 [Example 85, 2-((2R,5R)-2-(((1S,4S)-2-oxa-5-azabicyclo[2.2.1]heptan-5-yl)methyl)-5-methylpiperazin-1-yl)-1-((S)-7-(4-fluorobenzyl)-6-(hydroxymethyl)-2-methyl-2,3-dihydro-1H-pyrido[2,3-b][1,4]oxazin-1-yl)ethan-1-one]
- IC50 [1]: 0.68 nM
- IC50 [2]: 0.72 nM
- IC50 [3]: 20 nM
